Experimental data taken from PMC3740683, “ML212: A small-molecule probe for investigating fluconazole resistance mechanisms in Candida albicans” (Beilstein Journal of Organic Chemistry, 2013).
In brackets after ≈: the same amount, converted by molar mass. Where two headings read alike, the source gives them in different places.

Experiments:
C. albicans CaCi-8 = test: Secondary assay 1: CaCi-8 with 8 µg/mL fluconazole (Alamar Blue growth); format: cell-based, Candida albicans; settings: for CaCi-8 IC50: 37 °C, 48 hours, with test compound and 8 µg/mL (26 µM) fluconazole, average of at least three independent experiments in duplicate, inactive = negligible activity at concentrations below 26 µM; for IC50: Candida albicans
Experimental: All of the compounds prepared above were evaluated for their ability to chemosensitize the C. albicans test strains CaCi-2 and CaCi-8 towards fluconazole. […] The DMSO/fluconazole combination served as an internal control. […]
(1/OD measured) × (desired final volume of inoculum) × 0.3 = volume of fungal culture (µL) to add to desired volume of growth medium. When added to media in wells, this yields a calculated starting OD of the fungal inoculum of 0.00015. […]
3) Use a Thermo Combi nL to dispense 20 µL/well of assay media into all wells. […]
EnVision (Perkin Elmer) plate reader setup: Ex 544 nm, Em 590 nm, bandwidth 12 nm, top read.
Secondary assay 1: CaCi-8 with 8 µg/mL fluconazole […]
35808016); geldanamycin (AG Scientific Catalog no. […]
PBS w/o calcium and magnesium (Cellgro Catalog no. 21-040-CV)
(§1) Synthetic defined growth medium
(§2) RPMI 1640 medium, (powder without sodium bicarbonate; Invitrogen Catalog no. […]
no. 028K0760); glucose 40% (w/v) in water (Sigma Catalog no. G-5400); MOPS buffer […]
1) Prepare 1× RPMI medium by dissolving 10.4 g powdered medium in 800 mL […]
(§3) 2) Add 34.52 g MOPS. While stirring, adjust pH to 7.0 with 10 N NaOH.
(§4) 3) Add 10 mL uridine solution, 50 mL glucose solution, adjust final volume to 1000 […]
Test strain: C. albicans CaCi-8
1) Inoculate 500 µL of strain from cryopreserved stock into a 250 mL shaker flask containing 30 mL growth medium. Shake at 30 °C overnight (16 hours).
2) Read OD 600 of 1 mL of fungal culture in a cuvette using a standard optical density reader (Eppendorf BioPhotometer Plus), with growth medium as a […]
3) Dilute to a desired volume of fungal inoculum according to following formula: […]
1) Add fluconazole stock solution to fungal inoculum to achieve 8 µg/mL.
2) Add Pen/Strep to media to 1% concentration.
4) Dispense geldanamycin in positive control wells using Thermo Combi nL for a final concentration of 3 µM.
5) Then, pin 100 nL of test compound from compound plates into assay plates using a CyBi-Well pin tool.
6) Dispense 20 µL/well of culture into the assay media in all wells.
7) Incubate the plates in a humidified (90% humidity) Liconic incubator at 37 °C without agitation for 48 hours.
8) Dilute Alamar Blue 1:40 in Ca/Mg-free PBS.
9) To all plates, add 5 µL/well of the diluted Alamar Blue to plates to a final dilution […]
10) Incubate the plates for 2 hours. […]

C. albicans CaCi-2 = test: Primary screen and dose-response retest: CaCi-2 with 8 µg/mL fluconazole (Alamar Blue growth); format: cell-based, Candida albicans; settings: for IC50: Candida albicans, CACI2
Experimental: All of the compounds prepared above were evaluated for their ability to chemosensitize the C. albicans test strains CaCi-2 and CaCi-8 towards fluconazole. […] The DMSO/fluconazole combination served as an internal control.
Protocols for cellular assays
Primary screen and dose-response retest: CaCi-2 with 8 µg/mL fluconazole […]
Clear, flat-bottom, black, 384-well plates (Corning Catalog no. 3712BC; Lot no. […]
DMSO; Fluconazole (Sequoia Research Products Ltd) 2 mg/mL stock solution in PBS; […]
(AG Scientific Catalog no. DAL 1100; Lot no.151016SA); PBS without calcium and magnesium (Cellgro Catalog no. 21-040-CV)
as §1, §2
no. 028KO760); Glucose 40% (w/v) in water (Sigma Catalog no. G-5400); MOPS buffer […]
1) Prepare 1× RPMI medium by dissolving 10.4 grams powdered medium in 800 […]
as §3, §4
Test Strain: C. albicans CaCi-2
1) Inoculate 500 µL of strain from cryopreserved stock into a 250 mL shaker flask containing 30 mL growth medium. Shake at 30 °C overnight.
2) Read OD 600 of 1 mL fungal culture in a cuvette using a standard optical density reader (Eppendorf BioPhotometer Plus), with growth medium as a background […]
3) Dilute to desired volume of fungal inoculums according to the following formula:
(1/OD measured) × (desired final volume of inoculum) × 0.3 = volume of fungal culture (µL) to add to desired volume of growth medium. When added to media in wells, this yields a calculated starting OD of the fungal inoculum of 0.00015.
1) Add fluconazole stock solution to fungal inoculum to achieve a final concentration […]
2) Add Pen/Strep at 0.1 mL per 10 mL media (1% v/v).
3) Use a Thermo Combi nL to dispense 20 µL/well of assay media into all wells.
4) Pin 25 nL test compound from compound plates into assay plates using CyBi- […]
5) Dispense 20 µL/well of culture into the assay media in all wells.
6) Incubate plates in a humidified (90% humidity) Liconic incubator at 37 °C without […]
7) Dilute Alamar Blue Reagent 1:40 in Ca/Mg-free PBS.
8) To all plates, add 5 µL/well of the diluted Alamar to a final dilution factor of 1:200.
9) Incubate the plates for an additional 2 hours.
10) Read the relative fluorescence intensity (RFU) of wells on a standard plate reader as a measure of relative fungal growth. EnVision (Perkin Elmer) plate reader setup: Ex 544 nm, Em 590 nm, bandwidth 12 nm, top read. […]

CaCi-8 = system: CaCi-8; set-up: method as in PMID 8161633; settings: CaCi-8 clinical isolate; cited from earlier work
CaCi-2 = system: CaCi-2; set-up: method as in PMID 8161633; settings: CaCi-2 clinical isolate; cited from earlier work
Solubility in PBS = format: physicochemical; settings: aqueous buffer
[1] = Secondary assay 3: fibroblast toxicity; format: cell-based; settings: mouse, NIH-3T3 fibroblasts, murine 3T3 fibroblasts
Experimental: 11) Read relative fluorescence intensity (RFU) of wells on a standard plate reader as […]
measure of relative fungal growth. EnVision (Perkin Elmer) plate reader settings: […]
Secondary assay 3: fibroblast toxicity
Clear, flat-bottom, black, 384-well plates (Corning Catalog no. 3712BC Lot no.
35808016); geldanamycin (AG Scientific Catalog no. G-1047) 15 mM stock solution in […]
DMSO; fluconazole (Sequoia Research Ltd.) 2 mg/mL stock solution in PBS; Alamar […]
Blue (AG Scientific Catalog no. DAL1100, Lot no. 151016SA); PBS w/o calcium and […]
magnesium (Cellgro Catalog no. 21-040-CV)
Optimem medium (Invitrogen Catalog no. 31985-070; Lot no. 548536); 2.5% (v/v) fetal […]
bovine serum (Hyclone Catalog no.30071.03; Lot no. ARF26748); 1% (v/v) Pen/Strep […]
Test strain: NIH-3T3 mammalian fibroblasts (ATCC CRL No. 1658) […]
1) Plate cells in 384-well plates at 6,000 cells/well in 20 µL assay medium.
2) Incubate plates overnight at 37 °C under 5% CO2.
1) After overnight culture, pin compounds into wells at 100 nL/well using the CyBio […]
CyBi-Well pinning instrument.
2) After pinning compounds, add 20 µL of assay medium supplemented with […]
fluconazole to each well. […]
6) Read the relative fluorescence intensity (RFU) of wells on a standard plate reader as a measure of relative cell growth. EnVision (Perkin Elmer) plate reader […]
setup: Ex 544 nm, Em […], bandwidth12 nm, top read.

[2] = 37 °C, 48 hours, with test compound and 8 µg/mL (26 µM) fluconazole, average of at least three independent experiments in duplicate, inactive = negligible activity at concentrations below 26 µM
[3] = CACI8, 48 h, read-out: CaCi-8 IC50

| Structure (SMILES) | CaCi-8 IC50 (C. albicans CaCi-8) | CaCi-2 IC50 (C. albicans CaCi-2; [2]) | IC50 (C. albicans CaCi-8; [3]) | IC50 (C. albicans CaCi-2; [2]) | further results |
| --- | --- | --- | --- | --- | --- |
| COC(=O)Cn1nc(-c2ccccc2)c2cccnc21 [Compound 20] | inactive | inactive |  |  |  |
| COC(=O)Cn1nc(-c2cccnc2)c2ccccc21 [Compound 26] | inactive | inactive |  |  |  |
| COC(=O)Cn1nc(-c2cncnc2)c2ccccc21 [Compound 27] |  | inactive | 21.1 ± 3.3 µM |  |  |
| COC(=O)Cn1ncc2ccccc21 [Compound 21] | inactive | inactive |  |  |  |
| COC(=O)Cn1nc(C2CC2)c2ccccc21 [Compound 24] | inactive | inactive |  |  |  |
| COC(=O)Cn1nc(-c2ccccc2)c2ccc(Cl)cc21 [Compound 17] |  |  | 8.4 ± 0.5 µM | 4 ± 1.3 µM |  |
| COC(=O)Cn1nc(-c2ccccc2)c2ccc(C(F)(F)F)cc21 [Compound 18] | inactive | inactive |  |  |  |
| COC(=O)Cn1nc(-c2ccc(C(F)(F)F)cc2)c2ccccc21 [Compound 33] | inactive | inactive |  | > 26 µM |  |
| COC(=O)Cn1nc(-c2ccccc2)c2cc(OC)ccc21 [Compound 12] |  |  | 22.1 ± 6.2 µM | 14.9 ± 5.7 µM |  |
| COC(=O)Cn1nc(-c2cscn2)c2ccccc21 [Compound 29] | inactive |  |  | 12.9 ± 1.7 µM |  |
| COC(=O)Cn1nc(-c2ccccc2)c2cccc(C(F)(F)F)c21 [Compound 19] | inactive | inactive |  |  |  |
| OC(Cn1cncn1)(Cn1cncn1)c1ccc(F)cc1F [fluconazole] |  |  |  |  | minimum inhibitory concentration (MIC) (CaCi-8): 8 µg/mL (≈ 26.1 µM); minimum inhibitory concentration (MIC) (CaCi-2): 2 µg/mL (≈ 6.53 µM) |
| COC(=O)Cn1nc(-c2ccccc2)c2ccc(C)cc21 [Compound 15] | inactive |  |  | 5.9 ± 3.1 µM |  |
| COC(=O)Cn1nc(-c2ccc(OC)cc2)c2ccccc21 [Compound 31] |  |  | 14.1 ± 6.4 µM | 4.2 ± 1.7 µM |  |
| COC(=O)Cn1nc(-c2ccccc2)c2ccc(OC)cc21 [Compound 16] |  |  | 12.4 ± 0.5 µM | 9.5 ± 2.5 µM |  |
| COC(=O)Cn1nc(-c2ccc(C#N)cc2)c2ccccc21 [Compound 34] |  | inactive | 20.5 ± 0.3 µM | > 26 µM |  |

| Structure (SMILES) | CaCi-8 IC50 (C. albicans CaCi-8) | CaCi-2 IC50 (C. albicans CaCi-2; [2]) | IC50 (C. albicans CaCi-8; [3]) | IC50 (C. albicans CaCi-2; [2]) | further results |
| --- | --- | --- | --- | --- | --- |
| COC(=O)Cn1nc(-c2ccccc2)c2ccccc21 [Compound 1] |  |  | 3.5 ± 1.9 µM | 2.2 ± 1 µM | IC50 (C. albicans CaCi-8; CACI8, read-out: CaCi-8 IC50): 2.3 µM; IC50 (C. albicans CaCi-2; commercial sample, hit revalidation, with 8 µg/mL fluconazole): 0.8 µM; solubility (Solubility in PBS): 79 µM (≈ 21 µg/mL); IC50 at 48 h [1]: > 26 µM |
| COC(=O)Cn1nc(C(C)(C)C)c2ccccc21 [Compound 23] | inactive | inactive |  |  |  |
| COC(=O)Cn1nc(-c2ccccc2)c2cc(Cl)ccc21 [Compound 14] | inactive | inactive |  |  |  |
| COC(=O)Cn1nc(-c2cccc(F)c2)c2ccccc21 [Compound 38] |  |  | 4.2 ± 4.1 µM | 1.7 ± 0.4 µM |  |
| COC(=O)Cn1nc(-c2ccccc2OC)c2ccccc21 [Compound 40] |  |  | 11.4 ± 1.7 µM | 9.3 ± 3.6 µM |  |
| CCc1nn(CC(=O)OC)c2ccccc12 [Compound 22] | inactive | inactive |  |  |  |
| COC(=O)Cn1nc(-c2cc(OC)cc(OC)c2)c2ccccc21 [Compound 41] | inactive | inactive |  |  |  |
| COC(=O)Cn1nc(-c2cnco2)c2ccccc21 [Compound 28] | inactive | inactive |  |  |  |
| COC(=O)Cn1nc(-c2ccccc2)c2cc(C)ccc21 [Compound 11] |  |  | 8.2 ± 3.2 µM | 5.2 ± 2.2 µM |  |
| COC(=O)Cn1nc(C2CCCCC2)c2ccccc21 [Compound 25] |  |  | 6 ± 1.7 µM | 2.3 ± 0.3 µM |  |
| COC(=O)Cn1nc(-c2ccccc2)c2cc(F)ccc21 [Compound 13] | inactive |  |  | 11.2 ± 7.2 µM |  |
| COC(=O)Cn1nc(-c2ccccc2C)c2ccccc21 [Compound 39] |  |  | 7.8 ± 2.6 µM | 5.3 ± 0.5 µM |  |
| COC(=O)Cn1nc(-c2cccc(C)c2)c2ccccc21 [Compound 35] |  |  | 1.9 ± 0.9 µM | 1.1 ± 0.6 µM |  |
| COC(=O)Cn1nc(-c2ccc(F)cc2)c2ccccc21 [Compound 32] |  |  | 12.3 ± 3.9 µM | 8.3 ± 2.8 µM |  |
| COC(=O)Cn1nc(-c2ccc(C)cc2)c2ccccc21 [Compound 30] |  |  | 19.5 ± 14.2 µM | 4.8 ± 2.5 µM |  |
| COC(=O)Cn1nc(-c2cccc(N(C)C)c2)c2ccccc21 [Compound 37] |  |  | 2 ± 0.2 µM | 0.8 ± 0.1 µM |  |
